Assay results as given in ChEMBL document CHEMBL1201862, “PubChem BioAssay data set” (2004).
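A five-concentration, 48-hour dose response in 96-well plates underlies each endpoint, interpolated linearly between surrounding concentrations. GI50 = concentration required for 50% inhibition of growth.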 The source made the active and inactive calls. Cut-off read from the data, not from the text of the source: active = GI50 up to about 1.1 µM and inactive = higher.

Columns and labels:
Experiment in all cases: inhibition of tumour cell growth, NCI panel, 48 h
U-251 = system: U-251
HCC 2998 = system: HCC 2998
SF-539 = system: SF-539
HOP-18 = system: HOP-18
K562 = system: K562
SW-620 = system: SW-620
CAKI-1 = system: CAKI-1
MOLT-4 = system: MOLT-4
SK-MEL-5 = system: SK-MEL-5
CCRF-CEM = system: CCRF-CEM
SNB-19 = system: SNB-19
NCI-H522 = system: NCI-H522
HT-29 = system: HT-29
NCI/ADR-RES = system: NCI/ADR-RES
Hs-578T = system: Hs-578T
MCF7 = system: MCF7
MDA-N = system: MDA-N
DU-145 = system: DU-145
PC-3 = system: PC-3
T47D = system: T47D

Measured: GI50

COc1cc(/C=N/N=C(\N)NO)c([N+](=O)[O-])cc1OC
inactive: U-251 28.3 µM | HCC 2998 24.2 µM | SF-539 41 µM | HOP-18 21 µM | K562 36.5 µM | SW-620 47.9 µM | CAKI-1 20.4 µM | MOLT-4 27.1 µM | SK-MEL-5 18 µM | CCRF-CEM 41.6 µM | SNB-19 79.6 µM | NCI-H522 13.3 µM | HT-29 30.1 µM

O=C(O)C(=O)/C=C\c1ccc(Cl)cc1
inactive: U-251 66.4 µM | HCC 2998 > 100 µM | SF-539 > 100 µM | HOP-18 > 100 µM | K562 > 100 µM | SW-620 10.6 µM | CAKI-1 > 100 µM | MOLT-4 > 100 µM | SK-MEL-5 > 100 µM | CCRF-CEM > 100 µM | SNB-19 > 100 µM | NCI-H522 > 100 µM | HT-29 > 100 µM

Cc1ccc2[nH]c(=O)c(C(C#N)c3ccccc3)nc2c1 (stereo not given)
inactive: U-251 24.3 µM | HCC 2998 28.2 µM | SF-539 46.7 µM | HOP-18 24.7 µM | K562 47.9 µM | SW-620 43.8 µM | CAKI-1 34.6 µM | MOLT-4 20.9 µM | SK-MEL-5 19 µM | CCRF-CEM 32.7 µM | SNB-19 27.4 µM | NCI-H522 32.7 µM | HT-29 32.8 µM

OCC(O)C(O)C(O)C1SC(c2ccccc2)=NN1c1ccccc1 (stereo not given)
inactive: NCI/ADR-RES > 70.1 µM | U-251 51.4 µM | HCC 2998 > 100 µM | SF-539 41.2 µM | HOP-18 51.8 µM | Hs-578T 35.1 µM | MCF7 > 100 µM | K562 > 70.1 µM | SW-620 > 100 µM | CAKI-1 > 100 µM | MOLT-4 > 81.3 µM | SK-MEL-5 > 78.5 µM | CCRF-CEM > 81.5 µM | MDA-N > 82.4 µM | SNB-19 49.8 µM | NCI-H522 33 µM | DU-145 > 61 µM | PC-3 > 57.5 µM | HT-29 > 92 µM | T47D > 46.8 µM

Cc1ccccc1N1C(=O)/C(=C/c2ccc(N(CCC#N)CCC#N)cc2)N=C1c1cc([N+](=O)[O-])ccc1Cl
inactive: U-251 36 µM | HCC 2998 > 100 µM | SF-539 > 100 µM | HOP-18 > 100 µM | K562 35.8 µM | SW-620 > 100 µM | CAKI-1 > 100 µM | MOLT-4 25.5 µM | SK-MEL-5 38.5 µM | CCRF-CEM 48.6 µM | SNB-19 > 100 µM | NCI-H522 > 100 µM | HT-29 > 100 µM

CCN(CC)CCCC(C)NC(=O)c1ccc2c(c1)C(=O)c1ccccc1C2=O (stereo not given)
inactive: U-251 20.1 µM | HCC 2998 18.1 µM | SF-539 19.2 µM | HOP-18 > 85.5 µM | K562 18.3 µM | SW-620 13.6 µM | CAKI-1 25.9 µM | MOLT-4 16.6 µM | SK-MEL-5 14.5 µM | CCRF-CEM 21.7 µM | SNB-19 21.6 µM | NCI-H522 18.9 µM | HT-29 14 µM
